In PubChem BioAssay AID1918953 (Molecular Pharmacology Branch, DTP, NCI, 2023):
Several values for one entry are separate records, joined by “and”; a condition that tells them apart may be missing. Equal values may be shown once. Blank lines part the entries; values can stand above or below the molecule they belong to.

Test system: MDA-MB-231 complex spheroid viability
Experiment: Anticancer human tumor MDA-MB-231/ATCC cell line growth inhibition;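 also: drug exposure lasted 7 days starting on day 3 of spheroid growth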
Conditions: for viability, T/C: stronger effect = lower value
Summary of the method: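 Complex spheroids of tumor cells with HUVEC and human MSCs, exposed to iadademstat combined with other agents. Each agent tested in half-log steps from near clinical Cmax (else 10 microM top), DMSO ≤0.25%.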

[1] = curve of first compound, second compound 0.1 µM
[2] = curve of first compound, second compound 0.316 µM
[3] = curve of first compound, second compound 1 µM
[4] = curve of first compound, second compound 3.16 µM
[5] = curve of first compound, second compound 10 µM
[6] = second compound 0.1 µM, first compound 0.0316 µM
[7] = second compound 0.1 µM, first compound 0.1 µM
[8] = second compound 0.316 µM, first compound 0.0316 µM
[9] = second compound 0.316 µM, first compound 0.1 µM
[10] = second compound 1 µM, first compound 0.0316 µM
[11] = second compound 1 µM, first compound 0.1 µM
[12] = second compound 3.16 µM, first compound 0.0316 µM
[13] = second compound 3.16 µM, first compound 0.1 µM
[14] = second compound 10 µM, first compound 0.0316 µM
[15] = second compound 10 µM, first compound 0.1 µM
[16] = second compound 0.1 µM, first compound 0.00949 µM
[17] = second compound 0.1 µM, first compound 0.03 µM
[18] = second compound 0.1 µM, first compound 0.0949 µM
[19] = second compound 0.1 µM, first compound 0.3 µM
[20] = second compound 0.316 µM, first compound 0.00949 µM
[21] = second compound 0.316 µM, first compound 0.03 µM
[22] = second compound 0.316 µM, first compound 0.0949 µM
[23] = second compound 0.316 µM, first compound 0.3 µM
[24] = second compound 1 µM, first compound 0.00949 µM
[25] = second compound 1 µM, first compound 0.03 µM
[26] = second compound 1 µM, first compound 0.0949 µM
[27] = second compound 1 µM, first compound 0.3 µM
[28] = second compound 3.16 µM, first compound 0.00949 µM
[29] = second compound 3.16 µM, first compound 0.03 µM
[30] = second compound 3.16 µM, first compound 0.0949 µM
[31] = second compound 3.16 µM, first compound 0.3 µM
[32] = second compound 10 µM, first compound 0.00949 µM
[33] = second compound 10 µM, first compound 0.03 µM
[34] = second compound 10 µM, first compound 0.0949 µM
[35] = second compound 10 µM, first compound 0.3 µM

SMILES: COc1ccc([C@@H](O)c2cc(-c3ncnc4cc(N5CCOCC5)ccc34)c(F)cc2Cl)nn1 + NC1CC1c1ccc(-c2cccc(O)c2)cc1
IC50 [1]: 361 nM
IC50 [2]: 173 nM
IC50 [3]: 82.5 nM
IC50 [4]: 164 nM
IC50 [5]: < 31.6 nM
viability, T/C [6]: 74.9%
viability, T/C [7]: 65.6%
viability, T/C (second compound 0.1 µM, first compound 0.316 µM): 53%
viability, T/C (second compound 0.1 µM, first compound 1 µM): 33.1%
viability, T/C (second compound 0.1 µM, first compound 3.16 µM): 17.1%
viability, T/C (second compound 0.1 µM, first compound 10 µM): 12.8%
viability, T/C [8]: 57.1%
viability, T/C [9]: 58.5%
viability, T/C (second compound 0.316 µM, first compound 0.316 µM): 42.3%
viability, T/C (second compound 0.316 µM, first compound 1 µM): 28.9%
viability, T/C (second compound 0.316 µM, first compound 3.16 µM): 18%
viability, T/C (second compound 0.316 µM, first compound 10 µM): 13.1%
viability, T/C [10]: 59.3%
viability, T/C [11]: 48.3%
viability, T/C (second compound 1 µM, first compound 0.316 µM): 36%
viability, T/C (second compound 1 µM, first compound 1 µM): 27.4%
viability, T/C (second compound 1 µM, first compound 3.16 µM): 16.2%
viability, T/C (second compound 1 µM, first compound 10 µM): 11%
viability, T/C [12]: 58.5%
viability, T/C [13]: 54.2%
viability, T/C (second compound 3.16 µM, first compound 0.316 µM): 43.7%
viability, T/C (second compound 3.16 µM, first compound 1 µM): 29.1%
viability, T/C (second compound 3.16 µM, first compound 3.16 µM): 14.8%
viability, T/C (second compound 3.16 µM, first compound 10 µM): 11.6%
viability, T/C [14]: 44.8%
viability, T/C [15]: 43.7%
viability, T/C (second compound 10 µM, first compound 0.316 µM): 31.6%
viability, T/C (second compound 10 µM, first compound 1 µM): 20.2%
viability, T/C (second compound 10 µM, first compound 3.16 µM): 13.5%
viability, T/C (second compound 10 µM, first compound 10 µM): 10.2%

SMILES: NS(=O)(=O)OCC1CC(n2ccc3c(NC4CCc5ccccc54)ncnc32)CC1O (configuration not stated) + NC1CCC(NC2CC2c2ccccc2)CC1
IC50 [1]: 285 nM
IC50 [2]: 280 nM
IC50 [3]: 244 nM
IC50 [4]: 169 nM
IC50 [5]: 48.6 nM
viability, T/C [16]: 136%
viability, T/C [17]: 117%
viability, T/C [18]: 78.1%
viability, T/C [19]: 46.6%
viability, T/C (second compound 0.1 µM, first compound 0.949 µM): 42.7%
viability, T/C (second compound 0.1 µM, first compound 3 µM): 39.7%
viability, T/C [20]: 135%
viability, T/C [21]: 116%
viability, T/C [22]: 77%
viability, T/C [23]: 47.6%
viability, T/C (second compound 0.316 µM, first compound 0.949 µM): 40.3%
viability, T/C (second compound 0.316 µM, first compound 3 µM): 38.7%
viability, T/C [24]: 124%
viability, T/C [25]: 107%
viability, T/C [26]: 73.4%
viability, T/C [27]: 42.2%
viability, T/C (second compound 1 µM, first compound 0.949 µM): 40.6%
viability, T/C (second compound 1 µM, first compound 3 µM): 36.8%
viability, T/C [28]: 100%
viability, T/C [29]: 87.2%
viability, T/C [30]: 59.7%
viability, T/C [31]: 40.2%
viability, T/C (second compound 3.16 µM, first compound 0.949 µM): 33.4%
viability, T/C (second compound 3.16 µM, first compound 3 µM): 31.3%
viability, T/C [32]: 69.7%
viability, T/C [33]: 56.8%
viability, T/C [34]: 40.4%
viability, T/C [35]: 32.7%
viability, T/C (second compound 10 µM, first compound 0.949 µM): 28.1%
viability, T/C (second compound 10 µM, first compound 3 µM): 28.8%

SMILES: CC(C)CC(NC(=O)C(Cc1ccccc1)NC(=O)c1cnccn1)B(O)O (configuration not stated) + NC1CC1c1ccc(-c2cccc(O)c2)cc1
IC50 [1]: < 0.316 nM
IC50 [2]: < 0.316 nM
IC50 [3]: < 0.316 nM
IC50 [4]: < 0.316 nM
IC50 [5]: < 0.316 nM
viability, T/C (second compound 0.1 µM, first compound 0.000316 µM): 29.9%
viability, T/C (second compound 0.1 µM, first compound 0.001 µM): 1.88%
viability, T/C (second compound 0.1 µM, first compound 0.00316 µM): 0.68%
viability, T/C (second compound 0.1 µM, first compound 0.01 µM): 0.5%
viability, T/C [6]: 0.85%
viability, T/C [7]: 1.08%
viability, T/C (second compound 0.316 µM, first compound 0.000316 µM): 31.8%
viability, T/C (second compound 0.316 µM, first compound 0.001 µM): 0.28%
viability, T/C (second compound 0.316 µM, first compound 0.00316 µM): 0.07%
viability, T/C (second compound 0.316 µM, first compound 0.01 µM): 0.06%
viability, T/C [8]: 0.07%
viability, T/C [9]: 0.14%
viability, T/C (second compound 1 µM, first compound 0.000316 µM): 28.9%
viability, T/C (second compound 1 µM, first compound 0.001 µM): 0.45%
viability, T/C (second compound 1 µM, first compound 0.00316 µM): 0.11%
viability, T/C (second compound 1 µM, first compound 0.01 µM): 0.08%
viability, T/C [10]: 0.09%
viability, T/C [11]: 0.15%
viability, T/C (second compound 3.16 µM, first compound 0.000316 µM): 25.6%
viability, T/C (second compound 3.16 µM, first compound 0.001 µM): 0.41%
viability, T/C (second compound 3.16 µM, first compound 0.00316 µM): 0.12%
viability, T/C (second compound 3.16 µM, first compound 0.01 µM): 0.15%
viability, T/C [12]: 0.07%
viability, T/C [13]: 1.91%
viability, T/C (second compound 10 µM, first compound 0.000316 µM): 18.3%
viability, T/C (second compound 10 µM, first compound 0.001 µM): 0.24%
viability, T/C (second compound 10 µM, first compound 0.00316 µM): 0.13%
viability, T/C (second compound 10 µM, first compound 0.01 µM): 0.11%
viability, T/C [14]: 0.12%
viability, T/C [15]: 1.1%

IC50 (curve of compound): 7.67 nM and 4.84 nM
SMILES: CC(C)CC(NC(=O)CNC(=O)c1cc(Cl)ccc1Cl)B1OC(=O)CC(CC(=O)O)(C(=O)O)O1 (configuration not stated)
viability, T/C (compound 0.000316 µM): 99% and 100%
viability, T/C (compound 0.001 µM): 104% and 105%
viability, T/C (compound 0.00316 µM): 85.2% and 70.2%
viability, T/C (compound 0.01 µM): 39.5% and 14.9%
viability, T/C (compound 0.0316 µM): 6.41% and 1.24%
viability, T/C (compound 0.1 µM): 0.95% and 0.27%

SMILES: CCc1c2c(nc3ccc(O)cc13)-c1cc3c(c(=O)n1C2)COC(=O)[C@]3(O)CC + NC1CCC(NC2CC2c2ccccc2)CC1
IC50 [1]: < 0.949 nM
IC50 [2]: < 0.949 nM
IC50 [3]: < 0.949 nM
IC50 [4]: < 0.949 nM
IC50 [5]: < 0.949 nM
viability, T/C (second compound 0.1 µM, first compound 0.000949 µM): 17.1%
viability, T/C (second compound 0.1 µM, first compound 0.003 µM): 12.7%
viability, T/C [16]: 12%
viability, T/C [17]: 14%
viability, T/C [18]: 5.37%
viability, T/C [19]: 2.95%
viability, T/C (second compound 0.316 µM, first compound 0.000949 µM): 17.7%
viability, T/C (second compound 0.316 µM, first compound 0.003 µM): 13.5%
viability, T/C [20]: 12%
viability, T/C [21]: 16%
viability, T/C [22]: 5.44%
viability, T/C [23]: 2.86%
viability, T/C (second compound 1 µM, first compound 0.000949 µM): 19.1%
viability, T/C (second compound 1 µM, first compound 0.003 µM): 14.6%
viability, T/C [24]: 13.7%
viability, T/C [25]: 15.5%
viability, T/C [26]: 4.76%
viability, T/C [27]: 2.64%
viability, T/C (second compound 3.16 µM, first compound 0.000949 µM): 17%
viability, T/C (second compound 3.16 µM, first compound 0.003 µM): 15.3%
viability, T/C [28]: 16.5%
viability, T/C [29]: 13.6%
viability, T/C [30]: 4.18%
viability, T/C [31]: 1.91%
viability, T/C (second compound 10 µM, first compound 0.000949 µM): 13.9%
viability, T/C (second compound 10 µM, first compound 0.003 µM): 14%
viability, T/C [32]: 20.1%
viability, T/C [33]: 13.4%
viability, T/C [34]: 3.42%
viability, T/C [35]: 1.8%
